Data from patent US5369112A, “Method of treating cataracts caused by active oxygen” (Mitsubishi Gas Chemical Company, Inc., priority 1991, dated 1994).
Like-named read-outs stand apart in the source and are kept apart here.

Key:
[1] = Superoxide scavenging activity (hypoxanthine-xanthine oxidase, DMPO spin trapping, ESR); type: biochemical; conditions: pH 7.3, read-out: O2^- scavenging activity IC50
Source text: Activity of PQQ esters to scavenge superoxide (O2^-) produced in the system of hypoxanthinexanthine oxidase was examined by spin trapping method [using 5,5-dimethyl-l-pyrroline-N-oxide (hereinafter referred to as "DMPO") as a spin trapping agent] where electron spin resonance (hereinafter referred to as "ESR") was used.
Hypoxanthine+2O2 →2O2^- +uric acid (xanthine oxidase)
The following reagents were successively put in a test tube and stirred after addition of the hypoxanthine 7 to initiate the reaction and the reaction mixture was transferred to a quartz cell used for measurement of ESR.
Superoxide scavenging activity of OPQ and esters thereof was examined in the same manner as in Example 1.

[2] = Hydroxy radical scavenging activity (H2O2-(Fe^2+-DTPA), DMPO spin trapping, ESR); type: biochemical; conditions: pH 7.3, read-out: .OH scavenging activity IC50
Source text: Activity of PQQ esters to scavenge hydroxy radical (·OH) produced in the system of H2 O2 --(Fe^2+ -DTPA) was examined by spin trapping method [using 5,5-dimethyl-1-pyrroline-N-oxide (hereinafter referred to as "DMPO") as a spin trapping agent] where electron spin resonance (hereinafter referred to as "ESR") was used. DTPA means diethylenetriamine-pentaacetic acid.
H2 O2 +Fe^2 -DTPA complex→·OH+OH^-
The following reagents were successively put in a test tube and stirred after addition of H2 O2 6 to initiate the reaction and the reaction mixture was transferred to a quartz cell used for measurement of ESR.
Hydroxy radical scavenging activity of OPQ and esters thereof was examined in the same manner as in Example 3.

mice [3] = conditions: mouse, in vivo, ip
Method: One group consisted of 8 mice. For administration, PQQ·2Na and OPQ and esters thereof were dissolved in physiological saline and PQQ trimethyl ester and PQQ triallyl ester were suspended in 1% Tween 80-containing physiological saline, respectively.
PQQ·2Na, PQQ trimethyl ester, PQQ triallyl ester and OPQ and esters thereof were intraperitoneally administered to mice and they were bred in the same manner as in the above acute toxicity test. Urine of the mice was taken every day and glucose concentration was measured using clinical examination reagent (trademark: […] 2 manufactured by Miles.Sankyo Co.).

mice [4] = experiment: Kidney Toxicity Determined by Blood Examination (1); type: in vivo; conditions: mouse serum
Method: After lapse of one day from the administration, the mice were fasted (with feeding only water) and then after 18 hours, blood was collected and serum was obtained therefrom. Glucose, urea nitrogen and creatinine in the serum were examined by clinical examination reagent (trademark: FUJI DRYCHEMSLIDE manufactured by Fuji Photo Film Co., Ltd.).

In the case of CC(C)c1nc2c3nc(C(=O)O)cc(C(=O)O)c3c3[nH]c(C(=O)O)cc3c2o1 [1-Methylethyl OPQ, 1-methylethyl OPQ (R=CH(CH3)2)], the IC50 ([1]; Example 2, Table 7) is reported as 3.14 µM and the IC50 ([2]; Example 4, Table 9) is reported as 200 µM.

NC(=O)CCc1nc2c3nc(C(=O)O)cc(C(=O)O)c3c3[nH]c(C(=O)O)cc3c2o1 [2-Carbamoylethyl OPQ, 2-carbamoylethyl OPQ (R=CH2 CH2 CONH2)] showed an IC50 ([1]; Example 2, Table 7) of 3.2 µM and an IC50 ([2]; Example 4, Table 9) of 194 µM.

In the case of PQQ monomethyl ester, the IC50 ([1]; Example 1, Table 6) is reported as 0.0609 µM.

CC(C)Cc1nc2c3nc(C(=O)O)cc(C(=O)O)c3c3[nH]c(C(=O)O)cc3c2o1 [2-Methylpropyl OPQ, 2-methylpropyl OPQ (R=CH2 CH(CH3)2)] gave an IC50 ([1]; Example 2, Table 7) of 4.88 µM and an IC50 ([2]; Example 4, Table 9) of 421 µM.

In the case of CSCCc1nc2c3nc(C(=O)O)cc(C(=O)O)c3c3[nH]c(C(=O)O)cc3c2o1 [2-Methylthioethyl OPQ, 2-methylthioethyl OPQ (R= CH2 CH2 SCH3)], the glucose in urine (mice [3]; 20 mg/kg) is reported as “-”, the glucose in urine (mice [3]; 40 mg/kg) is reported as “-” and the glucose in urine (mice [3]; 80 mg/kg) is reported as “-”. The glucose in urine (mice [3]; 160 mg/kg) was “-”, the glucose in urine (mice [3]; 200 mg/kg) was “-” and the Creatinine (mice [4]; 40 mg/kg) was 0.76 ± 0.05 mg/dL. The Glucose (mice [4]; 40 mg/kg) was 96 ± 26 mg/dL, the Urea nitrogen (mice [4]; 40 mg/kg) was 26 ± 4 mg/dL and the Creatinine (mice [4]; 80 mg/kg) was 0.68 ± 0.08 mg/dL. For the same molecule, the Glucose (mice [4]; 80 mg/kg) was 88 ± 29 mg/dL, the Urea nitrogen (mice [4]; 80 mg/kg) was 26 ± 5 mg/dL and the Creatinine (mice [4]; 160 mg/kg) was 0.64 ± 0.05 mg/dL. The Glucose (mice [4]; 160 mg/kg) was 97 ± 22 mg/dL, the Urea nitrogen (mice [4]; 160 mg/kg) was 26 ± 3 mg/dL and the Creatinine (mice [4]; 200 mg/kg) was 0.73 ± 0.06 mg/dL. For the same molecule, the Glucose (mice [4]; 200 mg/kg) was 72 ± 16 mg/dL, the Urea nitrogen (mice [4]; 200 mg/kg) was 26 ± 2 mg/dL and the IC50 ([1]; Example 2, Table 7) was 3.94 µM. It also gave an IC50 ([2]; Example 4, Table 9) of 200 µM.

With O=C(O)c1cc(C(=O)O)c2c(n1)c1nc(Cc3ccccc3)oc1c1cc(C(=O)O)[nH]c12 [Benzyl OPQ, benzyl OPQ] the glucose in urine (mice [3]; 20 mg/kg) was “-”, the glucose in urine (mice [3]; 40 mg/kg) was “-” and the glucose in urine (mice [3]; 80 mg/kg) was “-”. The glucose in urine (mice [3]; 160 mg/kg) was “-”, the glucose in urine (mice [3]; 200 mg/kg) was “-” and the Creatinine (mice [4]; 40 mg/kg) was 0.68 ± 0.05 mg/dL. It also gave a Glucose (mice [4]; 40 mg/kg) of 90 ± 24 mg/dL, a Urea nitrogen (mice [4]; 40 mg/kg) of 23 ± 3 mg/dL and a Creatinine (mice [4]; 80 mg/kg) of 0.68 ± 0.04 mg/dL. It also gave a Glucose (mice [4]; 80 mg/kg) of 87 ± 17 mg/dL, a Urea nitrogen (mice [4]; 80 mg/kg) of 23 ± 2 mg/dL and a Creatinine (mice [4]; 160 mg/kg) of 0.68 ± 0.08 mg/dL. The Glucose (mice [4]; 160 mg/kg) was 87 ± 21 mg/dL, the Urea nitrogen (mice [4]; 160 mg/kg) was 26 ± 3 mg/dL and the Creatinine (mice [4]; 200 mg/kg) was 0.73 ± 0.05 mg/dL. The Glucose (mice [4]; 200 mg/kg) was 84 ± 18 mg/dL, the Urea nitrogen (mice [4]; 200 mg/kg) was 25 ± 3 mg/dL and the IC50 ([1]; Example 2, Table 7) was 3.01 µM. The IC50 ([2]; Example 4, Table 9) was 211 µM.

O=C(OCc1ccccc1)c1cc(C(=O)OCc2ccccc2)c2c(n1)C(=O)C(=O)c1cc(C(=O)OCc3ccccc3)[nH]c1-2 [PQQ tribenzyl ester] showed an IC50 ([1]; Example 1, Table 6) of 0.0769 µM and an IC50 ([2]; Example 3, Table 8) of 31 µM.

In the case of PQQ dimethyl ester, the IC50 ([1]; Example 1, Table 6) is reported as 0.0106 µM.
